Reference: US6949571B2, “1,2-dihydropyridine compounds, process for preparation of the same and use thereof” (Eisai Co., Ltd., priority 2000, dated 2005)
Read-outs that look alike come from different tables or passages of the source.

Assays:
[1] = test system: experimental autoimmune encephalomyelitis; assay: Experimental autoimmune encephalomyelitis model; format: in vivo; conditions: p.o. 5, 10 and 20 mg/kg, 10-16 days post immunisation, female Lewis rats, versus vehicle
Method: Female Lewis rats (205±10 g) obtained from Charles River, Kent UK, were housed in pairs under environmentally controlled conditions (6:00 a.m.-6:00 p.m. light/dark cycle; 22-24° C.; 45-55% humidity) and allowed free access to food and water. Experimental groups consisted of 9-12 animals. Rats were immunised in each hind foot with 20-50 μl of inoculum containing 50 μg guinea pig myelin basic protein (MBP; final concentration 2 mg/ml), emulsified in Freund's complete adjuvant (CFA; Sigma, UK) containing Mycobacterium tuberculosis H37Ra (final concentration 5.5 mg/ml; Difco Laboratories, UK). Animals were weighed and monitored daily and clinical disease scored as (O) no clinical signs; (1) flaccid tail and weight loss; (2) hind limb hypotonia with further weight loss; (3) complete hind limb paralysis; (4) paraplegia and (5) death. […] During the period of compound administration (10-16 days post immunisation; dpi) animals were scored 15 h after injection of vehicle or compound to avoid any acute effect of treatment on disease score. Compounds were dissolved/suspended in 0.5% methyl cellulose using a hand held Polytron homogeniser (PT1200; 2 min). Rats were dosed p.o. with either methyl cellulose vehicle (2.5 ml/kg) or compound at 5, 10 and 20 mg/kg. Results: the compound of the invention is improved in view of experimental autoimmune encephalomyelitis.

[2] = test system: convulsions induced by AMPA; assay: Anticonvulsant action induced by AMPA; format: in vivo, mice of ddy strain; conditions: 25 mg/kg orally, male ddy mice; AMPA continuously injected into lateral ventricle 30 minutes or 1 hour after
Method: A test compound was suspended in a 0.5% methyl cellulose solution or in sesame oil and was orally administered (25 mg/kg) to male mice of ddy strain. After 30 minutes or 1 hour from the oral administration, AMPA was continuously injected ([…]/5 μl/minute/mouse) into lateral ventricle to induce the convulsions. The effect was judged by a time-extending action until the convulsion takes place by a continuous injection of AMPA.
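Throughout, for IC50: primary rat embryonic cortical neurons grown on an astrocyte layer in 96-well plates, used after at least 8 to 10 days in culture, Fura2-AM fluorescence ratio at 340/380 nm excitation.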

Row | SMILES | effect on experimental autoimmune encephalomyelitis (clinical disease score) [1] | IC50 (AMPA receptor; Table 1, primary culture of rat embryo cerebral cortex nerve cells, 2 μM AMPA, 1 μM MK-801) | anticonvulsant action (time-extending action until the convulsion takes place) [2] | IC50 (AMPA receptor; Table 2, suppression of AMPA-induced calcium influx into nerve cells)
1 | O=c1c(-c2cccnc2F)cc(-c2ccccn2)cn1-c1ccccc1 [Example 76, 3-(2-Fluoro-3-pyridyl)-5-(2-pyridyl)-1-phenyl-1,2-dihydropyridin-2-one] | superior effect to the vehicle-administered group | 0.1 µM | significant anticonvulsant action | 
2 | N#Cc1ncccc1-c1cc(-c2ncccn2)cn(-c2ccccc2)c1=O [Example 264, 3-(2-Cyanopyridin-3-yl)-1-phenyl-5-(2-pyrimidinyl)-1,2-dihydropyridin-2-one] | superior effect to the vehicle-administered group |  | significant anticonvulsant action | 0.05 µM
